# Patent publication US20260028364A1, “CATIONIC CHROMENONES AND THEIR USE IN ONCOLOGY” (FLORATEK PHARMA S.A., priority 2022, published 2026)
# Key:
# Type in all cases: cell-based
# Wnt/Beta-Catenin = assay: SelectScreen CellSensor pathway inhibition, Wnt/Beta-Catenin; details: LEF-TCF-bla HCT116, no stimulus (constitutively activated)
# Protocol: (§1) Inhibition of various cellular pathways known to be involved in malignancy was tested using the SelectScreen Cell-based Pathway Profiling GeneBLAzer™ cell signaling pathway specific CellSensor™ cell lines ((Thermo Fisher). The assay is based on a beta-lactamase reporter activity which is modulated and can be measured quantitatively and selectively with the LiveBLAzer™-FRET B/G Loading Substrate. SelectScreen Cell-Based Pathway Profiling Service uses XLfit from IDBS. The dose response curve is curve fit to model number 205 (sigmoidal dose-response model). Custom logic was built by Thermo Fisher for the data analysis tool to address the different compound characteristics that can be observed with functional assays.
# Wnt/Beta-Catenin—LEF-TCF-bla HCT116—Inhibitor Screen, Constitutively Activated
# LEF-TCF-bla HCT116 cells are thawed and resuspended in Assay Media (OPTI-MEM, 0.5% dialyzed FBS, 0.1 mM NEAA, 1 mM Sodium Pyruvate, 100 U/mL/100 μg/mL Pen/Strep) to a concentration of 312,500 cells/mL. 32 μL of cell suspension is added to each well of a 384-well Poly-D-Lysine assay plate. Cells in Assay Media are incubated for 16-24 hours in the plate at 37° C./5% CO2 in a humidified incubator. 4 μL of a 10× serial dilution of ICG-001 (control inhibitor starting concentration, 25,000 nM) or compounds are added to appropriate wells of the plate. […] The plate is read on a fluorescence plate reader.
# [1] = target: Toll-like Receptor (TLR4); assay: SelectScreen CellSensor pathway inhibition, Toll-like Receptor (TLR4); details: NFkB-bla THP-1, stimulus LPS
# Protocol: as §1
# Toll-like Receptor (TLR4)—NFKB-bla THP-1—Inhibitor Screen, Activated by LPS
# NFKB-bla THP-1 cells are thawed and resuspended in Assay Media (RPMI, 0.5% dialyzed FBS, 0.1 mM NEAA, 1 mM Sodium Pyruvate, 100 U/mL/[…] Pen/Strep) to a concentration of 625,000 cells/mL. 32 μL of cell suspension is added to each well of a 384-well TC-Treated assay plate. Cells in Assay Media are incubated for 16-24 hours in the plate at 37° C./5% CO2 in a humidified incubator. […] The plate is read on a fluorescence plate reader.
# Oxidative Stress = assay: SelectScreen CellSensor pathway inhibition, Oxidative Stress; details: ARE-bla HepG2, stimulus tBHQ
# Protocol: as §1
# Oxidative Stress—ARE-bla HepG2—Inhibitor Screen, Activated by tBHQ
# ARE-bla HepG2 cells are thawed and resuspended in Assay Media (DMEM, 10% dialyzed FBS, 25 mM HEPES pH 7.3, 0.1 mM NEAA, 100 U/mL/100 μg/mL Pen/Strep) to a concentration of 375,000 cells/mL. 32 μL of cell suspension is added to each well of a 384-well Poly-D-Lysine assay plate. Cells in Assay Media are incubated for 16-24 hours in the plate at 37° C./5% CO2 in a humidified incubator. […] The plate is read on a fluorescence plate reader.
# JAK/STAT = assay: SelectScreen CellSensor pathway inhibition, JAK/STAT; details: ISRE-bla Jurkat, stimulus IFN-alpha
# Protocol: as §1
# JAK/STAT—ISRE-bla HEK 293T—Inhibitor Screen, Activated by IFN-Alpha
# ISRE-bla HEK 293T cells are thawed and resuspended in Assay Media (OPTI-MEM, 0.5% dialyzed FBS, 0.1 mM NEAA, 1 mM Sodium Pyruvate, 100 U/mL/[…] Pen/Strep) to a concentration of 625,000 cells/mL. 32 μL of cell suspension is added to each well of a 384-well TC-Treated assay plate. Cells in Assay Media are incubated for 16-24 hours in the plate at 37° C./5% CO2 in a humidified incubator. […] 4 μL of 10× control activator IFN-alpha at the pre-determined EC80 concentration is added to wells containing the control inhibitor or compounds. […] The plate is read on a fluorescence plate reader.
molecule,measurement,setting,value
"O=C1[C@H](Cc2ccc(O)cc2)N2C(=O)CCN(C(=O)NCc3ccccc3)[C@H]2CN1Cc1cccc2ccccc12 [ICG-001, reference compound]",IC50,Wnt/Beta-Catenin,1830 nM
"Cn1cc(C2=C(c3cn(CCCSC(=N)N)c4ccccc34)C(=O)NC2=O)c2ccccc21 [Ro-31-8220, reference compound]",IC50,[1],460 nM
same,IC50,Oxidative Stress,1670 nM
JAK Inhibitor I [reference compound],IC50,JAK/STAT,19 nM
